Experimental data taken from patent US9546201B2, “MUC-1 cytoplasmic domain peptides as inhibitors of cancer” (DANA-FARBER CANCER INSTITUTE, INC., priority 2008, dated 2017).
Where no end group is shown, it is not given here. [ ]: non-standard residue; d: D form.

Legend:
[1] = tested on: H-1975 non-small cell lung carcinoma cell line; conditions: 5 μM, 3 days
Description: H-1975 non-small cell lung carcinoma cell line was grown in DMEM with 10% heat-inactivated fetal bovine serum with 100 units/mL penicillin, 100 μg/ml streptomycin and 2 mmol/L L-glutamine. Cells were re-seeded one day before treatments. Cells were treated with 5 μM GO-200-2B for 3 days and cell viability was determined by trypan blue exclusion. Y-axis represents percent viability as compared to control untreated cells.
H1975 non-small cell lung carcinoma cells were treated with 5 μM of different MUC1-CD CQC-region peptides for 6 days. Viable cell number on day 6 was determined by trypan blue exclusion. […] Y-axis represents relative growth as compared to control untreated cells.
Moreover, another non-small cell lung carcinoma cell line, H-1975, was treated with 5 μM GO-200-2B for 3 days and monitored for cell growth as well as cell death.
Multiple tumor cell lines (ZR-75-1 Hormone-dependent Breast Carcinoma; MDA-MB-231 Triple-Negative Breast Carcinoma; A549 Non-small Cell Lung Carcinoma; H-1975 Non-small Cell Lung Carcinoma) were grown in RPMI-1640 supplemented with 10% heat-inactivated fetal bovine serum, 100 units/mL penicillin and 100 μg/mL streptomycin and 2 mmol/L L-glutamine. […] The proliferation of different cell lines was compared with cells treated with vehicle only.

[2] = tested on: ZR-75-1 breast carcinoma cells; assay: ZR-75-1 proliferation with GO-203 analogs (trypan blue exclusion); format: cell-based, human; conditions: 5 μM every day for 4 days
Description: FIG. 10. Effect of different MUC1-CD CQC-region peptides on the growth of hormone-dependent breast carcinoma cells. To determine whether exposure to different MUC1-CD CQC-region containing peptides affect growth, ZR-75-1 breast carcinoma cells were treated with 5 μM of different peptides for 4 days and monitored for cell proliferation. […] Y-axis represents percent growth inhibition as compared to control untreated cells.
FIG. 14. Effect of Shorter GO-203 peptides on proliferation of ZR-75-1 Breast Cancer Cells. Human ZR-75-1 breast cancer cells were grown in RPMI1640 supplemented with 10% heat-inactivated fetal bovine serum, 100 units/ml penicillin, 100 μg/ml streptomycin. Cells were treated with different peptides at 5 μM every day for four days and cell viability was determined by trypan blue exclusion.
Multiple tumor cell lines (ZR-75-1 Hormone-dependent Breast Carcinoma; MDA-MB-231 Triple-Negative Breast Carcinoma; A549 Non-small Cell Lung Carcinoma; H-1975 Non-small Cell Lung Carcinoma) were grown in RPMI-1640 supplemented with 10% heat-inactivated fetal bovine serum, 100 units/mL penicillin and 100 μg/mL streptomycin and 2 mmol/L L-glutamine. Cells were treated separately with 5 μM of different analogs of GO-203 (FIG. 8) for 3 to 7 days and viability was determined by trypan blue exclusion. The proliferation of different cell lines was compared with cells treated with vehicle only.

ZR-75-1 cells = assay: In vitro cytotoxicity and combination assays (MTS, CombiTool combination index); format: cell-based, human
Description: FIGS. 15A-D. Effects of GO-203 in combination with different anti-cancer drugs. ZR-75-1 cells were exposed to the indicated concentrations of Cisplatin (FIG. 15A), Doxorubicin (FIG. 15B), rh-TNF-α (FIG. 15C) and Taxol (FIG. 15D) alone and in combination with GO-203. The treatment was sequential for Cisplatin, Doxorubicin and Taxol where cells were exposed to these agents for 72 h followed by treatment with 5 μM of GO-203 for 72 h. In studies with rh-TNF, cells were exposed concomitantly to different concentrations of rh-TNF alone and in combination with 5 μM of GO-203 for 72 h. The MTS assay was used to determine the cell survival. For all panels, the Y-axis represents percent growth as compared to control untreated cells.
FIG. 16. GO-203 is additive or synergistic with anti-cancer agents. The plots show combination indexes against different effect levels (fraction affected). The effect level was obtained by treating cells with the indicated combinations of anti-cancer drugs and GO-203. Y-axis represents—fold growth as compared to control untreated cells.
Cells were seeded in a 96-well flat-bottomed microtiter plate (Fisher) at 1000 cells per well for a 6-day experiment or at 3000 cells per well for a 3-day experiment. The cells were then cultured for 24 h. Anti-cancer drugs and GO-203 were diluted to the indicated concentrations and added to the cells. GO-203 (5 μmol/L) was added every 24 h for 72 h. Cell viability was determined by adding MTS reagent to the cells and reading the absorbance at 490 nm by a microplate reader.
The IC50 values for all the anti-cancer drugs were determined by non-linear regression analysis using Graphpad Prism (GraphPad Software, San Diego Calif.). The CombiTool computer program (version 2.001, IMB Jena Biocomputing Group) was used to calculate the combination index within a dose range in the presence of 5 μmol/L GO-203.
The combination index (CI) values generated by the CombiTool program were plotted against the fraction affected by the drug combination. The CI values were close to 1 for Cisplatin and GO-203, indicating an additive interaction. The CI values obtained for Doxorubicin (25, 50, 100, 200 nM), Taxol (25, 50, 100 nM) and TNF (10, 20, 40 ng/ml) with GO-203 were less than 1, supporting a strong additive effect or synergism (FIGS. 15A-D and 16).

His-MUC1-CD = molecular target: T1, His-MUC1-CD (Homo sapiens, UniProt P15941); conditions: BIAcore analysis, Leng et al., 2007; read-out: dissociation constant (Kd) of MUC1-CD dimers; cited from earlier work
T1 sequence (P15941 1184-1255): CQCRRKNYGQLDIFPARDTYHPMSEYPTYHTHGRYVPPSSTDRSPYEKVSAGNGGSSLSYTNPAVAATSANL

[3] = tested on: DU145 prostate carcinoma cells; assay: DU145 cell growth by MTT assay; format: cell-based; conditions: 5 μM, 4 days (FIG. 7)
Description: FIG. 7. MUC1 7-mer inhibits prostate carcinoma. DU145 prostate carcinoma cells were treated with 5 μM CQC short (7-mer; SEQ ID NO: 53) or 5 μM CQC long (15-mer; SEQ ID NO: 63) peptides for 4 days. Cell growth was measured by MTT assay. The Y-axis represents percent growth inhibition compared to untreated cells (control).

[4] = tested on: multiple carcinoma cell lines; assay: Inventors' recent studies of MUC1 C-terminal peptides on carcinoma cell lines; format: cell-based; conditions: L-amino acid peptide
Source text: However, these MUC1-C-terminal peptides consists of L-amino acids. […] Consequently, they have generated an all-dextro form of the above described shorter MUC1 C-terminal peptide, in which the L-amino acids were changed to D-amino acids (GO-203). Moreover, to determine the minimum amino acid residues from the MUC1-C-terminal region that are required to retain the cell killing activity, they have also generated many different versions of GO-203 as described in FIG. 8.

Molecule: CC(=O)N[C@@H](C)C(=O)N[C@@H](CCCCN)C(=O)N[C@@H](CCCCN)C(=O)N[C@@H](Cc1ccc(O)cc1)C(=O)N[C@@H](CC(C)C)C(=O)N[C@@]1(C)CCCC=CCCCC2(CCCC=CCCC[C@@](C)(C(=O)N[C@@H](CCCNC(=N)N)C(=O)N[C@@H](CCCCN)C(=O)N[C@@H](CC(N)=O)C(=O)N[C@@H](Cc3ccc(O)cc3)C(N)=O)NC(=O)[C@H](CS)NC(=O)[C@H](CCC(N)=O)NC(=O)[C@H](CS)NC2=O)NC(=O)[C@H](C)NC(=O)[C@H](CC(C)C)NC(=O)[C@H](C)NC1=O (stereo partly drawn) [GO-200-2B]
- cell death [1]: significant induction of cell death

Molecule: GO-203: all-dextro form of the shorter MUC1 C-terminal peptide CQCRRKN (SEQ ID NO:53) ([dC][dQ][dC][dR][dR][dK][dN]; cysteine pairing not given here)
- growth of ZR-75-1 cells [2]: significant inhibition of growth
- combination index (CI) with Cisplatin (ZR-75-1 cells; Cisplatin 72 h followed by 5 μM GO-203 for 72 h): ~1
- combination index (CI) with Doxorubicin (ZR-75-1 cells; Doxorubicin 25, 50, 100, 200 nM, followed by 5 μM GO-203): less than 1
- combination index (CI) with Taxol (ZR-75-1 cells; Taxol 25, 50, 100 nM, followed by 5 μM GO-203): less than 1
- combination index (CI) with TNF (ZR-75-1 cells; rh-TNF 10, 20, 40 ng/ml concomitantly with 5 μM GO-203 for 72 h): less than 1

Molecule: GO-207: shorter GO-203 peptide, SEQ ID NO:4 (CQCRRK)
- growth of ZR-75-1 cells [2]: significant inhibition of growth

Molecule: GO-208: shorter GO-203 peptide, SEQ ID NO:50 (CQCRR)
- growth of ZR-75-1 cells [2]: significant inhibition of growth

Molecule: GO-209: shorter GO-203 peptide, SEQ ID NO:54 (CQCR)
- growth of ZR-75-1 cells [2]: significant inhibition of growth

Molecule: MUC1-CD: 72-amino acid MUC1 cytoplasmic domain (SEQ ID NO:1); forms dimers
- Kd (His-MUC1-CD): 33 nM

Molecule: MUC1/CQC 7-mer: shorter MUC1-C-terminal peptide CQCRRKN of L-amino acids (7-mer; SEQ ID NO: 53)
- in vitro activity relative to the 15-mer [3]: as potent as the MUC1/CQC 15-mer
- killing of tumor cells [4]: active in killing tumor cells
